{"source": "patent US11944701B2", "about": "“Protection of materials by sphingosine based compounds” (STICHTING VU, priority 2012, dated 2024)", "key": {"[1]": {"test": "Erosion test: weight loss of HAP disks after exposure to citric acid", "conditions": "for protection of HAP: 100 μg/ml in Tris-Tween, 3 hrs", "procedure": "Dental enamel consists largely of hydroxyapatite crystals (Ca10(PO4)6(OH)2. Sintered at high temperatures, hydroxyapatite discs can be produced with physical characteristics (e.g. hardness and density) resembling those of enamel (Anderson et al, 2004), which can be used to determine erosive properties of solutions (Jensdottir et al, 2005) by measuring weight loss from hydroxyapatite after immersion in an erosive (acidic) solution.\nHydroxyapatite discs, sintered at 1250° C. and with a relative density of 98% were obtained from Swerea, Stockholm, Sweden. The lateral and bottom surfaces of the discs were covered with nail polish so that one side remained uncoated. Next, discs were cleaned by sanding with sand paper (3M734 P600) rinsed with demineralised water, dried at 37° C. overnight and weighed to determine the initial mass. Hydroxyapatite discs were placed in the wells of 12 well cell culture plates (Greiner bio-one, Frickenhausen, Germany), to which was added 1.5 ml of phytosphingosine (PHS in various concentrations dissolved in saliva buffer (2 mM potassium phosphate, 50 mM KCl, 1 mM CaCl2, 0.1 mM MgCl2, pH 6.8) under gently shaking for 3 hours at 37° C. After three times rinsing with 4 ml saliva buffer to remove unbound PHS, discs were placed in new wells with 4 ml of 0.1 M citric acid (pH=3.0). After 30 minutes citric acid was pipetted off and discs were rinsed 3 times with 4 ml demineralized water, dried overnight at 37° C. and weighted. The difference in weight before and after the erosive treatment was taken as a measure for erosion. The experiments were conducted in triplicate and were repeated at least two times. Formation of saliva pellicle on HAP discs was achieved as follows: saliva was collected without conscious stimulation, as described previously (Navazesh, 1993). Saliva was cleared from cellular debris by centrifugation at 10,000 g for 10 minutes. The supernatant (HWS) was collected and used for coating HAP disks with a salivary pellicle. For this purpose, HAP disks were incubated with 4 ml HWS at 37° C. After 3 hrs, disks were rinsed 3 times with distilled water to remove unbound protein. Subsequently, the protective effect of PHS on saliva-coated HAP was tested as described above for bare HAP.\nProtection of HAP against erosion was determined essentially as described by Jensdottir et al, (2005), by measuring weight loss from HAP disks before and after immersion in an erosive (acidic) solution using a Sartorius GD503 analytical precision scale. For the erosion experiments, the lateral and bottom surfaces of the disks were covered with nail polish leaving the circular upper surface uncoated. Next, disks were cleaned by sanding with fine sand paper (3M734 P600), rinsed with demineralised water, dried at 37° C. overnight and weighed to determine the initial mass. Stock solutions of lipids were prepared in ethanol to a concentration of 5 mg/ml. These stock solutions were diluted further to the desired concentration in the working buffer. Working solutions of PHS were prepared in saliva buffer (2 mM potassium phosphate, 50 mM KCl, 1 mM CaCl2, 0.1 mM MgCl2, pH 6.8) or in 20 mM Tris (pH 6.8) supplemented with 0.1% Tween 20 (Tris-Tween). HAP disks were placed in the wells of 12 well cell culture plates (Greiner bio-one, Frickenhausen, Germany), to which 1.5 ml of the lipid solutions was added and incubated under gentle shaking for 3 hours at 37° C. After three times rinsing with 4 ml of the incubation buffer to remove unbound lipid, disks were incubated with 4 ml of 0.1 M citric acid (pH=3.0). […] The difference in weight before and after the erosive treatment was taken as a measure for erosion. All incubations were conducted in triplicate and each experiment was repeated at least two times."}, "Streptococcus mutans": {"test_system": "Streptococcus mutans", "test": "Antifouling activity of sphingolipids coated on HA discs", "assay_type": "cell-based", "conditions": "HA discs coated with 100 μg/ml lipid; 2 hr with bacteria", "procedure": "(§1) Six different sphingolipids including PHS, PHS phosphate, Sphingosine, Sphinganine, Stearoyl PHS and Sphingomyelin were tested for their antifouling properties against two primary colonizers i.e.—Streptococcus sanguinis and Streptococcus gordonii and a late colonizer, Streptococcus mutans.\n(§2) HA discs were incubated 0/N with 100 μg/ml lipid at 37° C. Subsequently, the discs were washed to remove unbound lipid. Then the lipid-coated HA discs were incubated for 2 hr with 1.5 ml of ˜10^7 cells/ml. After washing, the adherent bacterial cells were desorbed by sonication and transferred to agar plates. After 48 hr CFUs were counted."}, "Streptococcus gordonii": {"test_system": "Streptococcus gordonii", "test": "Antifouling activity of sphingolipids coated on HA discs", "assay_type": "cell-based", "conditions": "HA discs coated with 100 μg/ml lipid; 2 hr with bacteria", "procedure": "as §1, §2"}, "Solubility of PHS": {"test": "Solubility of PHS", "assay_type": "physicochemical"}, "[2]": {"conditions": "in saliva buffer; cited from earlier work"}, "[3]": {"test": "PHS adsorption to HAP (OPA fluorimetry)", "procedure": "PHS was dissolved in concentrations ranging from 0 to 500 μg/ml in 20 mM Tris buffer supplemented with 0.1% Tween 20 (pH 6.8) (Tris-Tween). Tween 20 was added to keep PHS in solution. Disks were incubated with the PHS solutions for 18 h, and then rinsed with demin water (3 times) to remove unbound PHS. HAP bound PHS was extracted by incubation with 1.5 ml methanol for 90 minutes. Since nail polish dissolved in methanol, in the binding experiments HAP disks were used without nail polish. It was verified that no PHS was adsorbed to the plastic, by conducting control incubations without disks. After evaporation, the residue was dissolved in 250 μl of methanol. To 100 of this solution 25 μl ortho-phtaldialdehyde reagent (OPA, Sigma-Aldrich) to enable fluorimetric quantification of bound PHS. Fluorescence was measured on a Fluostar microplate reader at excitation/emission wavelengths of 380 nm/450 nm. Absolute quantities were determined by reference to a standard curve of PHS. All incubations were conducted in triplicate and the experiment was repeated two times."}, "Streptococcus sanguinis": {"test_system": "Streptococcus sanguinis", "test": "Antifouling activity of sphingolipids coated on HA discs", "assay_type": "cell-based", "conditions": "HA discs coated with 100 μg/ml lipid; 2 hr with bacteria", "procedure": "as §1, §2"}}, "note": "Where two headings read alike, the source gives them in different places.", "data": [{"compound": "4-hydroxysphinganine-1-phosphate [PHS phosphate]", "values": [{"measurement": "protection against subsequent erosive attack by citric acid", "setting": "[1]; 200 μg/ml in saliva buffer", "value": "did not afford protection"}]}, {"compound": "CCCCCCCCCCCCCCC(O)[C@@H](O)[C@@H](N)COP(=O)(O)O", "note": "(stereo partly drawn) [PHS phosphate, 4-hydroxysphinganine-1-phosphate]", "values": [{"measurement": "protection of HAP", "setting": "[1]; 0.1 M citric acid 30 minutes", "value": "protection that was comparable to that by PHS"}, {"measurement": "antifouling activity (reduction of adherent bacteria)", "setting": "Streptococcus mutans", "value": "~2", "unit": "log CFU/ml"}, {"measurement": "reduction in bacterial adherence", "setting": "Streptococcus gordonii", "value": 1.5, "unit": "log values"}]}, {"compound": "CCCCCCCCCCCCCC[C@@H](O)[C@@H](O)[C@@H](N)CO", "note": "[PHS, phytosphingosine]", "values": [{"measurement": "effect on the pH of citric acid", "setting": "[1]", "value": "no effect"}, {"measurement": "protection when present in the erosive fluid", "setting": "[1]; 0.1 M citric acid in the presence of 100 ug/ml PHS, 30 minutes, untreated HAP disks", "value": "protects against erosion even with untreated HAP disks"}, {"measurement": "duration of the protective effect", "setting": "[1]; 1 hour exposure to citric acid, 50 μg/ml PHS (FIG. 3)", "value": "still protected"}, {"measurement": "protection of disks covered with a salivary pellicle (CHWS) versus controls", "setting": "[1]; 20 hrs CHWS, then 100 μg/ml PHS in TrisT 3 hrs, 0.1 M citric acid 30 minutes", "value": "protected to the same extent"}, {"measurement": "protection against dissolution by citric acid relative to the control disks", "setting": "[1]; HAP discs pretreated, then 0.1 M citric acid (pH=3) for 30 minutes", "value": "more than 80%"}, {"measurement": "PHS concentration at which virtually maximal protection was achieved", "setting": "[1]; HAP disks incubated 3 hrs with PHS, citric acid 30 minutes", "value": "> 20", "unit": "µg/mL"}, {"measurement": "protection of saliva-coated HAP versus uncoated HAP", "setting": "[1]; HAP disks preincubated with human saliva (salivary pellicle)", "value": "to the same extent"}, {"measurement": "protection at 500 and 50 μg/ml", "setting": "[1]; PHS 500 and 50 μg/ml", "value": "comparable protection"}, {"measurement": "protection at 5 ug/ml", "setting": "[1]; PHS concentration lowered to 5 ug/ml", "value": "steep decrease in protection"}, {"measurement": "protection with PHS dissolved in Tris-Tween compared with saliva buffer", "setting": "[1]; PHS dissolved in Tris-Tween", "value": "essentially the same protection"}, {"measurement": "less weight loss compared to the untreated control disks", "setting": "[1]; PHS in saliva buffer, subsequent erosive challenge 0.1 M citric acid (pH=3) 30 minutes", "value": "70-80%"}, {"measurement": "protection by pre-treatment", "setting": "[1]; pretreated 100 ug/ml 3 hours, 0.1 M citric acid (pH=3.0) 30 minutes", "value": "protects against the erosive effects of citric acid"}, {"measurement": "effect of solvent used for stock solution on protection", "setting": "[1]; stock 5 mg/ml in DMSO or ethanol, with or without sonication, 3 hr incubation", "value": "No difference"}, {"measurement": "binding level at which protection is maximal", "setting": "[1]; submaximal binding, 0.1 M citric acid (pH 3.0) 30 minutes", "value": "approximately 6 μg per disk"}, {"measurement": "solubility", "setting": "Solubility of PHS; in Tris-Tween, concentration before and after centrifugation 10 minutes 10,000 g", "value": "completely soluble"}, {"measurement": "solubility", "setting": "Solubility of PHS; in water", "value": "moderately soluble"}, {"measurement": "solubility", "setting": "[2]", "value": "poorly soluble"}, {"measurement": "PHS adsorbed onto the surface of the disk", "setting": "[3]; at maximal adsorption (60 μg/ml and higher), Tris-Tween", "value": "approximately 12 μg"}, {"measurement": "time to equilibrium of the initial fast phase of binding", "setting": "[3]; biphasic time course, gradual increase over the next 15 hrs", "value": "≤ 1", "unit": "h"}, {"measurement": "PHS concentration at which maximal adsorption occurred", "setting": "[3]; in Tris-Tween", "value": "≥ 60", "unit": "µg/mL"}, {"measurement": "adsorption to saliva-incubated HAP disks compared to control", "setting": "[3]; overnight incubation with saliva, then PHS, control saliva buffer", "value": "even higher amounts of PHS adsorbed"}, {"measurement": "share of the maximal adsorption level reached", "setting": "[3]; within 5 minutes", "value": "> 65", "unit": "%"}, {"measurement": "amount adsorbed", "setting": "[3]; within one minute, fixed PHS concentration", "value": "substantial amount"}]}, {"compound": "CCCCCCCCCCCCCCC[C@@H](O)[C@@H](N)CO", "note": "[Sphinganine]", "values": [{"measurement": "protection of HAP", "setting": "[1]; 0.1 M citric acid 30 minutes", "value": "protection that was comparable to that by PHS"}, {"measurement": "effect of phosphate in the buffer on efficacy", "setting": "[1]; FIG. 8", "value": "more effective when provided in a buffer not containing, or containing a minimal amount of, phosphate"}, {"measurement": "protection against citric acid", "setting": "[1]; used in a Tris buffer (FIG. 8)", "value": "protected against citric acid"}, {"measurement": "protection against citric acid", "setting": "[1]; used in a buffer containing phosphate ions", "value": "not when used in a buffer containing phosphate ions"}, {"measurement": "reduction of adherent bacteria", "setting": "Streptococcus mutans", "value": 3, "unit": "log"}, {"measurement": "reduction in bacterial adherence", "setting": "Streptococcus sanguinis", "value": 2, "unit": "log value"}, {"measurement": "reduction in bacterial adherence", "setting": "Streptococcus gordonii", "value": 1.5, "unit": "log values"}]}, {"compound": "CCCCCCCCCCCCCCCCCC(=O)N[C@@H](CO)[C@H](O)C(O)CCCCCCCCCCCCCC", "note": "(stereo partly drawn) [Stearoyl PHS, N-stearoyl 4-4-hydroxysphinganine]", "values": [{"measurement": "antifouling activity (reduction of adherent bacteria)", "setting": "Streptococcus mutans", "value": "~2", "unit": "log CFU/ml"}]}, {"compound": "CCCCCCCCCCCCC/C=C/[C@@H](O)[C@@H](N)CO", "note": "[sphingosine]", "values": [{"measurement": "protection of HAP", "setting": "[1]; 0.1 M citric acid 30 minutes", "value": "protection that was comparable to that by PHS"}]}, {"compound": "Di-myroistyl phosphatidylcholine [reference compound]", "values": [{"measurement": "protection of HAP", "setting": "[1]; 0.1 M citric acid 30 minutes", "value": "did not protect HAP"}]}, {"compound": "sphingomyelin [reference compound]", "values": [{"measurement": "protection of HAP", "setting": "[1]; 0.1 M citric acid 30 minutes", "value": "did not protect HAP"}, {"measurement": "reduction in bacterial adherence", "setting": "Streptococcus sanguinis", "value": 1, "unit": "log value"}]}]}
